Measured values published in ChEMBL document CHEMBL5543113, “Amphiphilic α-Peptoid-deoxynojirimycin Conjugate-based Multivalent Glycosidase Inhibitor for Hypoglycemic Effect and Fluorescence Imaging” (J Med Chem, 2024).
Calls of active or inactive are those of the source. The rule behind the calls is not given here.

Columns and labels:
[1] = Inhibition of Aspergillus niger Alpha-glucosidase incubated for 10 mins by Lineweaver-Burk plot analysis
[2] = Inhibition of rice Alpha-glucosidase incubated for 10 mins by Lineweaver-Burk plot analysis; parameters: species or system Oryza sativa
[3] = Inhibition of C57BL/6J mouse Alpha-glucosidase incubated for 10 mins by Lineweaver-Burk plot analysis
[4] = molecular target: Alpha-glucosidase (Saccharomyces cerevisiae S288c) (UniProt P53341+P38158+P07265); assay: Inhibition of Saccharomyces cerevisiae Alpha-glucosidase at 1 mM incubated for 10 mins by absorbance based microplate spectrophotometric analysis; assay type: protein assay
Mus musculus [5] = assay: Hypoglycemic activity in C57BL/6J mouse assessed as molar reduction in PBG level at 1.6 mg/kg, po co-administered with maltose and measured after 30 mins by glucometer relative to control; assay type: functional; parameters: scale not given: the % may be the effect or the level left; details: 0.5 h
Mus musculus [6] = assay: Hypoglycemic activity in C57BL/6J mouse assessed as blood glucose level at 0.4 mg/kg, po co-administered with maltose and measured after 15 mins by glucometer (380.8 +/- 20.6 mg/dl); assay type: functional; details: 0.25 h
Mus musculus [7] = assay: Hypoglycemic activity in C57BL/6J mouse assessed as blood glucose level at 0.8 mg/kg, po co-administered with maltose and measured after 15 mins by glucometer (380.8 +/- 20.6 mg/dl); assay type: functional; details: 0.25 h
Mus musculus [8] = assay: Hypoglycemic activity in C57BL/6J mouse assessed as blood glucose level at 1.6 mg/kg, po co-administered with maltose and measured after 15 mins by glucometer (380.8 +/- 20.6 mg/dL); assay type: functional; details: 0.25 h
Mus musculus [9] = assay: Hypoglycemic activity in C57BL/6J mouse assessed as blood glucose level at 0.4 mg/kg, po co-administered with maltose and measured after 30 mins by glucometer (380.8 +/- 20.6 mg/dL); assay type: functional; details: 0.5 h
Mus musculus [10] = assay: Hypoglycemic activity in C57BL/6J mouse assessed as blood glucose level at 0.8 mg/kg, po co-administered with maltose and measured after 30 mins by glucometer (380.8 +/- 20.6 mg/dL); assay type: functional; details: 0.5 h
Mus musculus [11] = assay: Hypoglycemic activity in C57BL/6J mouse assessed as blood glucose level at 1.6 mg/kg, po co-administered with maltose and measured after 30 mins by glucometer (380.8 +/- 20.6 mg/dL); assay type: functional; details: 0.5 h
Mus musculus [12] = assay: Hypoglycemic activity in C57BL/6J mouse assessed as decrease in PBG level at 0.4 mg/kg, po co-administered with maltose and measured after 15 mins by glucometer relative to control; assay type: functional; parameters: scale not given: the % may be the effect or the level left; details: 0.25 h
Mus musculus [13] = assay: Hypoglycemic activity in C57BL/6J mouse assessed as decrease in PBG level at 0.8 mg/kg, po co-administered with maltose and measured after 15 mins by glucometer relative to control; assay type: functional; parameters: scale not given: the % may be the effect or the level left; details: 0.25 h
Mus musculus [14] = assay: Hypoglycemic activity in C57BL/6J mouse assessed as decrease in PBG level at 1.6 mg/kg, po co-administered with maltose and measured after 15 mins by glucometer relative to control; assay type: functional; parameters: scale not given: the % may be the effect or the level left; details: 0.25 h
Mus musculus [15] = assay: Hypoglycemic activity in C57BL/6J mouse assessed as decrease in PBG level at 0.4 mg/kg, po co-administered with maltose and measured after 30 mins by glucometer relative to control; assay type: functional; parameters: scale not given: the % may be the effect or the level left; details: 0.5 h
Mus musculus [16] = assay: Hypoglycemic activity in C57BL/6J mouse assessed as decrease in PBG level at 0.8 mg/kg, po co-administered with maltose and measured after 30 mins by glucometer relative to control; assay type: functional; parameters: scale not given: the % may be the effect or the level left; details: 0.5 h
Mus musculus [17] = assay: Hypoglycemic activity in C57BL/6J mouse assessed as decrease in PBG level at 1.6 mg/kg, po co-administered with maltose and measured after 30 mins by glucometer relative to control; assay type: functional; parameters: scale not given: the % may be the effect or the level left; details: 0.5 h
Mus musculus [18] = assay: Hypoglycemic activity in C57BL/6J mouse assessed as reduction in PBG level measured per DNJ unit at 0.4 mg/kg, po co-administered with maltose and measured at 15 to 30 mins by glucometer relative to control; assay type: functional; parameters: scale not given: the % may be the effect or the level left; details: time 15-30 min
Mus musculus [19] = assay: Hypoglycemic activity in C57BL/6J mouse assessed as reduction in PBG level measured per DNJ unit at 0.8 mg/kg, po co-administered with maltose and measured at 15 to 30 mins by glucometer relative to control; assay type: functional; parameters: scale not given: the % may be the effect or the level left; details: time 15-30 min
Mus musculus [20] = assay: Hypoglycemic activity in C57BL/6J mouse assessed as reduction in PBG level measured per DNJ unit at 1.6 mg/kg, po co-administered with maltose and measured at 15 to 30 mins by glucometer relative to control; assay type: functional; parameters: scale not given: the % may be the effect or the level left; details: time 15-30 min
Mus musculus [21] = assay: Hypoglycemic activity in KKAy diabetic mouse model assessed as blood glucose level at 1.6 mg/kg, po co-administered with maltose and measured after 15 mins by glucometer (reference value: 582.6 +/- 22.9 mg/dl); assay type: functional; details: 0.25 h
Mus musculus [22] = assay: Hypoglycemic activity in KKAy diabetic mouse model assessed as blood glucose level at 1.6 mg/kg, po co-administered with maltose and measured after 30 mins by glucometer (reference value: 582.6 +/- 22.9 mg/dl); assay type: functional; details: 0.5 h
Mus musculus [23] = assay: Hypoglycemic activity in KKAy diabetic mouse model assessed as blood glucose level at 1.6 mg/kg, po co-administered with maltose and measured after 60 mins by glucometer (reference value: 582.6 +/- 22.9 mg/dl); assay type: functional; details: 1 h
Mus musculus [24] = assay: Hypoglycemic activity in KKAy diabetic mouse model assessed as blood glucose level at 1.6 mg/kg, po co-administered with maltose and measured after 120 mins by glucometer (reference value: 582.6 +/- 22.9 mg/dl); assay type: functional; details: 2 h
Mus musculus [25] = assay: Hypoglycemic activity in KKAy diabetic mouse model assessed as decrease in PBG level at 1.6 mg/kg, po co-administered with maltose and measured after 15 mins by glucometer relative to control; assay type: functional; parameters: scale not given: the % may be the effect or the level left; details: 0.25 h
Mus musculus [26] = assay: Hypoglycemic activity in KKAy diabetic mouse model assessed as decrease in PBG level at 1.6 mg/kg, po co-administered with maltose and measured after 30 mins by glucometer relative to control; assay type: functional; parameters: scale not given: the % may be the effect or the level left; details: 0.5 h
Mus musculus [27] = assay: Hypoglycemic activity in KKAy diabetic mouse model assessed as decrease in PBG level at 1.6 mg/kg, po co-administered with maltose and measured after 60 mins by glucometer relative to control; assay type: functional; parameters: scale not given: the % may be the effect or the level left; details: 1 h
Mus musculus [28] = assay: Hypoglycemic activity in KKAy diabetic mouse model assessed as decrease in PBG level at 1.6 mg/kg, po co-administered with maltose and measured after 120 mins by glucometer relative to control; assay type: functional; parameters: scale not given: the % may be the effect or the level left; details: 2 h
Mus musculus [29] = assay: Hypoglycemic activity in KKAy diabetic mouse model assessed as molar decrease in PBG level at 1.6 mg/kg, po co-administered with maltose and measured after 30 mins by glucometer relative to control; assay type: functional; parameters: scale not given: the % may be the effect or the level left; details: 0.5 h
Mus musculus [30] = assay: Hypoglycemic activity in KKAy diabetic mouse model assessed as blood glucose level at 1.6 mg/kg, po co-administered with 1 g/kg maltose and measured after 15 mins by glucometer (reference value: 453 +/- 38.6 mg/dl); assay type: functional; details: 0.25 h
Mus musculus [31] = assay: Hypoglycemic activity in KKAy diabetic mouse model assessed as blood glucose level at 1.6 mg/kg, po co-administered with 1 g/kg maltose and measured after 30 mins by glucometer (reference value: 491.4 +/- 22.5 mg/dl); assay type: functional; details: 0.5 h
Mus musculus [32] = assay: Hypoglycemic activity in KKAy diabetic mouse model assessed as blood glucose level at 1.6 mg/kg, po co-administered with 1 g/kg maltose and measured after 60 mins by glucometer (reference value: 498.6 +/- 31.6 mg/dl); assay type: functional; details: 1 h
Mus musculus [33] = assay: Hypoglycemic activity in KKAy diabetic mouse model assessed as blood glucose level at 1.6 mg/kg, po co-administered with 1 g/kg maltose and measured after 120 mins by glucometer (reference value: 278.4 +/- 14.9 mg/dl); assay type: functional; details: 2 h
Mus musculus [34] = assay: Hypoglycemic activity in KKAy diabetic mouse model assessed as decrease in PBG level at 1.6 mg/kg, po co-administered with 1 g/kg maltose measured after 15 mins by glucometer relative to control; assay type: functional; parameters: scale not given: the % may be the effect or the level left; details: 0.25 h
Mus musculus [35] = assay: Hypoglycemic activity in KKAy diabetic mouse model assessed as decrease in PBG level at 1.6 mg/kg, po co-administered with 1 g/kg maltose measured after 30 mins by glucometer relative to control; assay type: functional; parameters: scale not given: the % may be the effect or the level left; details: 0.5 h
Mus musculus [36] = assay: Hypoglycemic activity in KKAy diabetic mouse model assessed as decrease in PBG level at 1.6 mg/kg, po co-administered with 1 g/kg maltose measured at 60 to 120 mins by glucometer; assay type: functional, organism-based; details: time 60-120 min
[37] = Self assembly property of the compound in water assessed as mean diameter at 1 x 10^-4 M by dynamic light scattering spectrometric analysis; assay type: physicochemical; details: buffer, 100 µM; dose 1 10^-4M
[38] = Self assembly property of the compound in water assessed as diameter at 1 x 10^-4 M by transmission electron microscopic analysis; assay type: physicochemical; details: buffer, 100 µM; dose 1 10^-4M
[39] = Self assembly property of compound in citric acid-phosphate buffer at pH 2 at 1 x 10^-4 M assessed as diameter by dynamic light scattering spectrometric analysis; assay type: physicochemical; details: pH 2, 100 µM, dose 1 10^-4M
[40] = Self assembly property of compound in citric acid-phosphate buffer at pH 3 to 7 at 1 x 10^-4M assessed as diameter by dynamic light scattering spectrometric analysis; assay type: physicochemical; details: pH 3, 100 µM, dose 1 10^-4M

OCCN1C[C@H](O)[C@@H](O)[C@H](O)[C@H]1CO [MIGLITOL]
Ki [1]: 20600 nM | Ki [2]: 180 nM | Ki [3]: 1460 nM | inhibition [4]: inactive | Activity (Mus musculus [5]): 2.8% | Activity (Mus musculus [6]): 348.8 mg/dL | Activity (Mus musculus [7]): 331.9 mg/dL | Activity (Mus musculus [8]): 298.8 mg/dL | Activity (Mus musculus [9]): 349.5 mg/dL | Activity (Mus musculus [10]): 318.2 mg/dL | Activity (Mus musculus [11]): 297.4 mg/dL | Activity (Mus musculus [12]): 6.2% | Activity (Mus musculus [13]): 10.7% | Activity (Mus musculus [14]): 19.6% | Activity (Mus musculus [15]): 8.2% | Activity (Mus musculus [16]): 16.5% | Activity (Mus musculus [17]): 21.9% | Activity (Mus musculus [18]): 4.2% | Activity (Mus musculus [19]): 4.3% | Activity (Mus musculus [20]): 2.8% | Activity (Mus musculus [21]): 532.2 mg/dL | Activity (Mus musculus [22]): 535.8 mg/dL | Activity (Mus musculus [23]): 512.4 mg/dL | Activity (Mus musculus [24]): 397.2 mg/dL | Activity (Mus musculus [25]): 3.2% | Activity (Mus musculus [26]): 8.6% | Activity (Mus musculus [27]): 7.7% | Activity (Mus musculus [28]): 9.4% | Activity (Mus musculus [29]): 1.1%

OC[C@H]1NC[C@H](O)[C@@H](O)[C@@H]1O [DUVOGLUSTAT]
Ki [1]: 3600 nM | Ki [2]: 17 nM | Ki [3]: 39 nM | inhibition [4]: inactive | Activity (Mus musculus [30]): 354 mg/dL | Activity (Mus musculus [31]): 476.4 mg/dL | Activity (Mus musculus [32]): 489 mg/dL | Activity (Mus musculus [33]): 296.4 mg/dL | Activity (Mus musculus [34]): 21.8% | Activity (Mus musculus [35]): 3.1% | Activity (Mus musculus [36]): inactive

CCCCCCCCCCCCCCCCCCNC(=O)CN(Cc1cn(CCCN2C[C@H](O)[C@@H](O)[C@H](O)[C@H]2CO)nn1)C(=O)CN(Cc1cn(CCCN2C[C@H](O)[C@@H](O)[C@H](O)[C@H]2CO)nn1)C(=O)CN(Cc1cn(CCCN2C[C@H](O)[C@@H](O)[C@H](O)[C@H]2CO)nn1)C(=O)CN(Cc1cn(CCCN2C[C@H](O)[C@@H](O)[C@H](O)[C@H]2CO)nn1)C(C)=O
Ki [1]: 37400 nM | Ki [2]: 440 nM | Ki [3]: 15400 nM | inhibition [4]: inactive | Activity [37]: 252 nm | Activity [38]: 79 nm | Activity [39]: 211 nm | Activity [40]: ~ 250 nm
